# In ChEMBL document CHEMBL5518240 (J Med Chem, 2024):
# Target: T1, Protein cereblon/CREB-binding protein (Homo sapiens, UniProt Q92793+Q96SW2)
# Assay: PROTAC activity at CBP/CRBN in human VCaP cells assessed as protein degradation incubated for 4 hrs by Western blot analysis
# Assay type: cell-based
# Conditions: not given
row,SMILES,DC50
1,CC(=O)N1CCc2c(c(N3CCCc4cc(-c5cnn(C)c5)c(C(F)F)cc43)nn2C2CCN(C3CN(c4ccc5c(c4)C(=O)N(C4CCC(=O)NC4=O)C5=O)C3)CC2)C1 (stereo unspecified),1.3 nM
2,CC(=O)N1CCc2c(c(N3CCCc4cc(-c5cnn(C)c5)c(C(F)F)cc43)nn2C2CCN(C(=O)c3cccc4c3C(=O)N(C3CCC(=O)NC3=O)C4=O)CC2)C1 (stereo unspecified),> 1000 nM
3,CC(=O)N1CCc2c(c(N3CCCc4cc(-c5cnn(C)c5)c(C(F)F)cc43)nn2C2CCN(C(=O)CCNc3ccc4c(c3)C(=O)N(C3CCC(=O)NC3=O)C4=O)CC2)C1 (stereo unspecified),0.9 nM
4,CC(=O)N1CCc2c(c(N3CCCc4cc(-c5cnn(C)c5)c(C(F)F)cc43)nn2C2CCN(C(=O)CCCNc3cccc4c3C(=O)N(C3CCC(=O)NC3=O)C4=O)CC2)C1 (stereo unspecified),1.4 nM
5,CC(=O)N1CCc2c(c(N3CCCc4cc(-c5cnn(C)c5)c(C(F)F)cc43)nn2C2CCN(C(=O)CCCCNc3cccc4c3C(=O)N(C3CCC(=O)NC3=O)C4=O)CC2)C1 (stereo unspecified),0.4 nM
6,CC(=O)N1CCc2c(c(N3CCCc4cc(-c5cnn(C)c5)c(C(F)F)cc43)nn2C2CCN(CC3CN(c4ccc5c(c4)C(=O)N(C4CCC(=O)NC4=O)C5=O)C3)CC2)C1 (stereo unspecified),1.1 nM
7,CC(=O)N1CCc2c(c(N3CCCc4cc(-c5cnn(C)c5)c(C(F)F)cc43)nn2[C@H]2CC[C@H](CN3CCN(c4ccc5c(c4)CN(C4CCC(=O)NC4=O)C5=O)CC3)CC2)C1 (stereo partly specified),0.1 nM
8,CC(=O)N1CCc2c(c(N3CCCc4cc(-c5cnn(C)c5)c(C(F)F)cc43)nn2C2CCN(C(=O)CCCCCNc3cccc4c3C(=O)N(C3CCC(=O)NC3=O)C4=O)CC2)C1 (stereo unspecified),0.4 nM
9,CC(=O)N1CCc2c(c(N3CCCc4cc(-c5cnn(C)c5)c(C(F)F)cc43)nn2C2CCN(C3CC4(CCN(c5ccc6c(c5)C(=O)N(C5CCC(=O)NC5=O)C6=O)CC4)C3)CC2)C1 (stereo unspecified),1.1 nM

# Target: T1, Protein cereblon/CREB-binding protein
# Assay: PROTAC activity at CBP/CRBN in human VCaP cells assessed as maximal protein degradation at 1 uM incubated for 4 hrs by Western blot analysis relative to control
# Assay type: cell-based
# Conditions: not given
row,SMILES,Emax
1,CC(=O)N1CCc2c(c(N3CCCc4cc(-c5cnn(C)c5)c(C(F)F)cc43)nn2C2CCN(C3CN(c4ccc5c(c4)C(=O)N(C4CCC(=O)NC4=O)C5=O)C3)CC2)C1 (stereo unspecified),> 95%
2,CC(=O)N1CCc2c(c(N3CCCc4cc(-c5cnn(C)c5)c(C(F)F)cc43)nn2C2CCN(C(=O)c3cccc4c3C(=O)N(C3CCC(=O)NC3=O)C4=O)CC2)C1 (stereo unspecified),< 50%
3,CC(=O)N1CCc2c(c(N3CCCc4cc(-c5cnn(C)c5)c(C(F)F)cc43)nn2C2CCN(C(=O)CCNc3ccc4c(c3)C(=O)N(C3CCC(=O)NC3=O)C4=O)CC2)C1 (stereo unspecified),> 95%
4,CC(=O)N1CCc2c(c(N3CCCc4cc(-c5cnn(C)c5)c(C(F)F)cc43)nn2C2CCN(C(=O)CCCNc3cccc4c3C(=O)N(C3CCC(=O)NC3=O)C4=O)CC2)C1 (stereo unspecified),92%
5,CC(=O)N1CCc2c(c(N3CCCc4cc(-c5cnn(C)c5)c(C(F)F)cc43)nn2C2CCN(C(=O)CCCCNc3cccc4c3C(=O)N(C3CCC(=O)NC3=O)C4=O)CC2)C1 (stereo unspecified),> 95%
6,CC(=O)N1CCc2c(c(N3CCCc4cc(-c5cnn(C)c5)c(C(F)F)cc43)nn2C2CCN(CC3CN(c4ccc5c(c4)C(=O)N(C4CCC(=O)NC4=O)C5=O)C3)CC2)C1 (stereo unspecified),> 95%
7,CC(=O)N1CCc2c(c(N3CCCc4cc(-c5cnn(C)c5)c(C(F)F)cc43)nn2[C@H]2CC[C@H](CN3CCN(c4ccc5c(c4)CN(C4CCC(=O)NC4=O)C5=O)CC3)CC2)C1 (stereo partly specified),> 95%
8,CC(=O)N1CCc2c(c(N3CCCc4cc(-c5cnn(C)c5)c(C(F)F)cc43)nn2C2CCN(C(=O)CCCCCNc3cccc4c3C(=O)N(C3CCC(=O)NC3=O)C4=O)CC2)C1 (stereo unspecified),115%
9,CC(=O)N1CCc2c(c(N3CCCc4cc(-c5cnn(C)c5)c(C(F)F)cc43)nn2C2CCN(C3CC4(CCN(c5ccc6c(c5)C(=O)N(C5CCC(=O)NC5=O)C6=O)CC4)C3)CC2)C1 (stereo unspecified),> 95%

# Target: T2, Protein cereblon/Histone acetyltransferase p300 (Homo sapiens, UniProt Q09472+Q96SW2)
# Assay: PROTAC activity at p300/CRBN in human VCaP cells assessed as protein degradation incubated for 4 hrs by Western blot analysis
# Assay type: cell-based
# Conditions: not given
row,SMILES,DC50
1,CC(=O)N1CCc2c(c(N3CCCc4cc(-c5cnn(C)c5)c(C(F)F)cc43)nn2C2CCN(C3CN(c4ccc5c(c4)C(=O)N(C4CCC(=O)NC4=O)C5=O)C3)CC2)C1 (stereo unspecified),1.1 nM
2,CC(=O)N1CCc2c(c(N3CCCc4cc(-c5cnn(C)c5)c(C(F)F)cc43)nn2C2CCN(C(=O)c3cccc4c3C(=O)N(C3CCC(=O)NC3=O)C4=O)CC2)C1 (stereo unspecified),> 1000 nM
3,CC(=O)N1CCc2c(c(N3CCCc4cc(-c5cnn(C)c5)c(C(F)F)cc43)nn2C2CCN(C(=O)CCNc3ccc4c(c3)C(=O)N(C3CCC(=O)NC3=O)C4=O)CC2)C1 (stereo unspecified),0.4 nM
4,CC(=O)N1CCc2c(c(N3CCCc4cc(-c5cnn(C)c5)c(C(F)F)cc43)nn2C2CCN(C(=O)CCCNc3cccc4c3C(=O)N(C3CCC(=O)NC3=O)C4=O)CC2)C1 (stereo unspecified),1.2 nM
5,CC(=O)N1CCc2c(c(N3CCCc4cc(-c5cnn(C)c5)c(C(F)F)cc43)nn2C2CCN(C(=O)CCCCNc3cccc4c3C(=O)N(C3CCC(=O)NC3=O)C4=O)CC2)C1 (stereo unspecified),0.1 nM
6,CC(=O)N1CCc2c(c(N3CCCc4cc(-c5cnn(C)c5)c(C(F)F)cc43)nn2C2CCN(CC3CN(c4ccc5c(c4)C(=O)N(C4CCC(=O)NC4=O)C5=O)C3)CC2)C1 (stereo unspecified),0.4 nM
7,CC(=O)N1CCc2c(c(N3CCCc4cc(-c5cnn(C)c5)c(C(F)F)cc43)nn2[C@H]2CC[C@H](CN3CCN(c4ccc5c(c4)CN(C4CCC(=O)NC4=O)C5=O)CC3)CC2)C1 (stereo partly specified),< 0.1 nM
8,CC(=O)N1CCc2c(c(N3CCCc4cc(-c5cnn(C)c5)c(C(F)F)cc43)nn2C2CCN(C(=O)CCCCCNc3cccc4c3C(=O)N(C3CCC(=O)NC3=O)C4=O)CC2)C1 (stereo unspecified),0.2 nM
9,CC(=O)N1CCc2c(c(N3CCCc4cc(-c5cnn(C)c5)c(C(F)F)cc43)nn2C2CCN(C3CC4(CCN(c5ccc6c(c5)C(=O)N(C5CCC(=O)NC5=O)C6=O)CC4)C3)CC2)C1 (stereo unspecified),0.4 nM

# Target: T2, Protein cereblon/Histone acetyltransferase p300
# Assay: PROTAC activity at p300/CRBN in human VCaP cells assessed as maximal protein degradation at 1 uM incubated for 4 hrs by Western blot analysis relative to control
# Assay type: cell-based
# Conditions: not given
# Target sequence in this assay (Q09472 2-2414 limits assumed): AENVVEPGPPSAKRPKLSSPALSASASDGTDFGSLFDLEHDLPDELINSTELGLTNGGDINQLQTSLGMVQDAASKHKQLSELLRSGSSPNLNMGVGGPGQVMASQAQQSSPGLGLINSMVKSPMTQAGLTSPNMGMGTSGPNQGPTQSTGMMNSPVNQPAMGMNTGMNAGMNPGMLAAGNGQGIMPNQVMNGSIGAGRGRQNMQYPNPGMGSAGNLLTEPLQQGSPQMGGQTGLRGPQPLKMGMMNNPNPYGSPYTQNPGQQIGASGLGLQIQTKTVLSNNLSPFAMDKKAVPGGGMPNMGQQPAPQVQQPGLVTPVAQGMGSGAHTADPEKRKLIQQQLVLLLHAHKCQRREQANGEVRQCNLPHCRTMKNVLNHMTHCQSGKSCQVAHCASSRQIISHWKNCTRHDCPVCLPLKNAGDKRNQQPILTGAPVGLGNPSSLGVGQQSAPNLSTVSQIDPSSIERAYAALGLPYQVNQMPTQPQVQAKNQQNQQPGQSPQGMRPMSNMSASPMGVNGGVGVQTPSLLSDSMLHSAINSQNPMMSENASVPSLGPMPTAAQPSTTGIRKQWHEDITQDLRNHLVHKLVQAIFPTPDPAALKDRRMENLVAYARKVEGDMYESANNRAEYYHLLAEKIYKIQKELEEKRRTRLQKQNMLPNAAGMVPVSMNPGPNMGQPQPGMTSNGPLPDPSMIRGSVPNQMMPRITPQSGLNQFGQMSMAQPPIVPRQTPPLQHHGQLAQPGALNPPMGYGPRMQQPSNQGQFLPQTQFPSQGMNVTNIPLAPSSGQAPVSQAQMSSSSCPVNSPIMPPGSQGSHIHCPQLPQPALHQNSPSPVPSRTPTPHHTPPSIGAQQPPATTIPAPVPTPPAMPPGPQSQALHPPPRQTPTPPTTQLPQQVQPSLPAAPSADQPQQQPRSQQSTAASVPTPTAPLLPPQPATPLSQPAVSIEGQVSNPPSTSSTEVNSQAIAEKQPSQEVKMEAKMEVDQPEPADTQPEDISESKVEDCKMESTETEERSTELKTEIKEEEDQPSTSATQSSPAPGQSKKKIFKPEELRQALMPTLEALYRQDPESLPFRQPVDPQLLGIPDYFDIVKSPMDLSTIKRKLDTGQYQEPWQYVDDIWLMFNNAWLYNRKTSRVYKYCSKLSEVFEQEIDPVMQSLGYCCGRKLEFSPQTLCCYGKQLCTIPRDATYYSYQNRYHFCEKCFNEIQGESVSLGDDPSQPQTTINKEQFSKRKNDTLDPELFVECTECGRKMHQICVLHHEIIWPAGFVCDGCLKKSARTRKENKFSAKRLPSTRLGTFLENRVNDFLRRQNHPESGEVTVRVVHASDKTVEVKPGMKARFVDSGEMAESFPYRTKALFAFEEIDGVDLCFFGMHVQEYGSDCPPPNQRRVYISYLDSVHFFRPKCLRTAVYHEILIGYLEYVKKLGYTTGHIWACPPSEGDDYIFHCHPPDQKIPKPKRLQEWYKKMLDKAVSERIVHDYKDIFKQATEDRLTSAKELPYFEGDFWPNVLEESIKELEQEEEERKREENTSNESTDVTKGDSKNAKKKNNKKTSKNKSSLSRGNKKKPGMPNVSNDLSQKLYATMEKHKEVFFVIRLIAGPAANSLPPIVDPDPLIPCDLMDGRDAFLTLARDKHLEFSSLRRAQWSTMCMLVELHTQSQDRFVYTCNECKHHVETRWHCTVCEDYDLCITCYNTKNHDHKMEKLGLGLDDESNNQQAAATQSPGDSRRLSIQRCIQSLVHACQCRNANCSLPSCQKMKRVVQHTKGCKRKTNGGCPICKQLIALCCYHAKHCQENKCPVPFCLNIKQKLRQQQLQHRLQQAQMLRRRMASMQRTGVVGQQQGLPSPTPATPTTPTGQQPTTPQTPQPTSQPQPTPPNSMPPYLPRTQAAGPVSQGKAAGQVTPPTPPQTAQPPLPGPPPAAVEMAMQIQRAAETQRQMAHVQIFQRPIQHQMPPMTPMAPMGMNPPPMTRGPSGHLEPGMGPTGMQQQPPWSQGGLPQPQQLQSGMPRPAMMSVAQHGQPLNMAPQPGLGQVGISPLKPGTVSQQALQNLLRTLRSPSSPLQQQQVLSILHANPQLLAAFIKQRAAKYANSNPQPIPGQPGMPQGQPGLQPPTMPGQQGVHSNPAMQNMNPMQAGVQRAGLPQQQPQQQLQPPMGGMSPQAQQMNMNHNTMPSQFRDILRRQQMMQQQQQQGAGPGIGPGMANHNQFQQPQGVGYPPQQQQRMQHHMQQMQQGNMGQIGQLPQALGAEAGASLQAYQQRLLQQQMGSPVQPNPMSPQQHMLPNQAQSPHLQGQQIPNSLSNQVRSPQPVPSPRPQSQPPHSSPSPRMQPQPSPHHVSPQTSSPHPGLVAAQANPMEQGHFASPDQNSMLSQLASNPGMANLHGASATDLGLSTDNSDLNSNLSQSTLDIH
# Target sequence in this assay (Q96SW2 whole entry partner): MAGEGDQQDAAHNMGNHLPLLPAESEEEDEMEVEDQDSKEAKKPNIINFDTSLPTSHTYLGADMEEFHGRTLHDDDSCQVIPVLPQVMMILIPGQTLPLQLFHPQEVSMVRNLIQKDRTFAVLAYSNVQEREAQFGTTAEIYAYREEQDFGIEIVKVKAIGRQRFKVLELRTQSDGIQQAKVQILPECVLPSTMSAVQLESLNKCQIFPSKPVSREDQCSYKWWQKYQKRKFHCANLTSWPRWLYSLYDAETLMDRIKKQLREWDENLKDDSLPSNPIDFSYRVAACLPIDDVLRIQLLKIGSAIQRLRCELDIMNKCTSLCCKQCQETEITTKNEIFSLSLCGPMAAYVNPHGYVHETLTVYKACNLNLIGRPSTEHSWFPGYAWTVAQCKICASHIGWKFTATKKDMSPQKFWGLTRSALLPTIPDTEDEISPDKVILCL
row,SMILES,Emax
1,CC(=O)N1CCc2c(c(N3CCCc4cc(-c5cnn(C)c5)c(C(F)F)cc43)nn2C2CCN(C3CN(c4ccc5c(c4)C(=O)N(C4CCC(=O)NC4=O)C5=O)C3)CC2)C1 (stereo unspecified),> 95%
2,CC(=O)N1CCc2c(c(N3CCCc4cc(-c5cnn(C)c5)c(C(F)F)cc43)nn2C2CCN(C(=O)c3cccc4c3C(=O)N(C3CCC(=O)NC3=O)C4=O)CC2)C1 (stereo unspecified),< 50%
3,CC(=O)N1CCc2c(c(N3CCCc4cc(-c5cnn(C)c5)c(C(F)F)cc43)nn2C2CCN(C(=O)CCNc3ccc4c(c3)C(=O)N(C3CCC(=O)NC3=O)C4=O)CC2)C1 (stereo unspecified),> 95%
4,CC(=O)N1CCc2c(c(N3CCCc4cc(-c5cnn(C)c5)c(C(F)F)cc43)nn2C2CCN(C(=O)CCCNc3cccc4c3C(=O)N(C3CCC(=O)NC3=O)C4=O)CC2)C1 (stereo unspecified),93%
5,CC(=O)N1CCc2c(c(N3CCCc4cc(-c5cnn(C)c5)c(C(F)F)cc43)nn2C2CCN(C(=O)CCCCNc3cccc4c3C(=O)N(C3CCC(=O)NC3=O)C4=O)CC2)C1 (stereo unspecified),> 95%
6,CC(=O)N1CCc2c(c(N3CCCc4cc(-c5cnn(C)c5)c(C(F)F)cc43)nn2C2CCN(CC3CN(c4ccc5c(c4)C(=O)N(C4CCC(=O)NC4=O)C5=O)C3)CC2)C1 (stereo unspecified),> 95%
7,CC(=O)N1CCc2c(c(N3CCCc4cc(-c5cnn(C)c5)c(C(F)F)cc43)nn2[C@H]2CC[C@H](CN3CCN(c4ccc5c(c4)CN(C4CCC(=O)NC4=O)C5=O)CC3)CC2)C1 (stereo partly specified),> 95%
8,CC(=O)N1CCc2c(c(N3CCCc4cc(-c5cnn(C)c5)c(C(F)F)cc43)nn2C2CCN(C(=O)CCCCCNc3cccc4c3C(=O)N(C3CCC(=O)NC3=O)C4=O)CC2)C1 (stereo unspecified),> 95%
9,CC(=O)N1CCc2c(c(N3CCCc4cc(-c5cnn(C)c5)c(C(F)F)cc43)nn2C2CCN(C3CC4(CCN(c5ccc6c(c5)C(=O)N(C5CCC(=O)NC5=O)C6=O)CC4)C3)CC2)C1 (stereo unspecified),> 95%

# Tested on: not listed separately
# Assay: Oral plasma exposure in SCID mouse at 5 mg/kg, po measured after 1 hr
# Assay type: ADME, organism-based
# Conditions: SCID, plasma
row,SMILES,concentration at 1 h
1,CC(=O)N1CCc2c(c(N3CCCc4cc(-c5cnn(C)c5)c(C(F)F)cc43)nn2C2CCN(C3CN(c4ccc5c(c4)C(=O)N(C4CCC(=O)NC4=O)C5=O)C3)CC2)C1 (stereo unspecified),1050 ng/mL
2,CC(=O)N1CCc2c(c(N3CCCc4cc(-c5cnn(C)c5)c(C(F)F)cc43)nn2C2CCN(C(=O)CCNc3ccc4c(c3)C(=O)N(C3CCC(=O)NC3=O)C4=O)CC2)C1 (stereo unspecified),5.1 ng/mL
3,CC(=O)N1CCc2c(c(N3CCCc4cc(-c5cnn(C)c5)c(C(F)F)cc43)nn2C2CCN(C(=O)CCCCNc3cccc4c3C(=O)N(C3CCC(=O)NC3=O)C4=O)CC2)C1 (stereo unspecified),5.4 ng/mL
4,CC(=O)N1CCc2c(c(N3CCCc4cc(-c5cnn(C)c5)c(C(F)F)cc43)nn2C2CCN(CC3CN(c4ccc5c(c4)C(=O)N(C4CCC(=O)NC4=O)C5=O)C3)CC2)C1 (stereo unspecified),23.8 ng/mL
5,CC(=O)N1CCc2c(c(N3CCCc4cc(-c5cnn(C)c5)c(C(F)F)cc43)nn2C2CCN(C3CC4(CCN(c5ccc6c(c5)C(=O)N(C5CCC(=O)NC5=O)C6=O)CC4)C3)CC2)C1 (stereo unspecified),493 ng/mL

# Tested on: not listed separately
# Assay: Oral plasma exposure in SCID mouse at 5 mg/kg, po measured after 3 hrs
# Assay type: ADME, organism-based
# Conditions: SCID, plasma
row,SMILES,concentration at 3 h
1,CC(=O)N1CCc2c(c(N3CCCc4cc(-c5cnn(C)c5)c(C(F)F)cc43)nn2C2CCN(C3CN(c4ccc5c(c4)C(=O)N(C4CCC(=O)NC4=O)C5=O)C3)CC2)C1 (stereo unspecified),962 ng/mL
2,CC(=O)N1CCc2c(c(N3CCCc4cc(-c5cnn(C)c5)c(C(F)F)cc43)nn2C2CCN(C(=O)CCNc3ccc4c(c3)C(=O)N(C3CCC(=O)NC3=O)C4=O)CC2)C1 (stereo unspecified),3.2 ng/mL
3,CC(=O)N1CCc2c(c(N3CCCc4cc(-c5cnn(C)c5)c(C(F)F)cc43)nn2C2CCN(C(=O)CCCCNc3cccc4c3C(=O)N(C3CCC(=O)NC3=O)C4=O)CC2)C1 (stereo unspecified),2.7 ng/mL
4,CC(=O)N1CCc2c(c(N3CCCc4cc(-c5cnn(C)c5)c(C(F)F)cc43)nn2C2CCN(CC3CN(c4ccc5c(c4)C(=O)N(C4CCC(=O)NC4=O)C5=O)C3)CC2)C1 (stereo unspecified),16.7 ng/mL
5,CC(=O)N1CCc2c(c(N3CCCc4cc(-c5cnn(C)c5)c(C(F)F)cc43)nn2C2CCN(C3CC4(CCN(c5ccc6c(c5)C(=O)N(C5CCC(=O)NC5=O)C6=O)CC4)C3)CC2)C1 (stereo unspecified),312 ng/mL

# Tested on: not listed separately
# Assay: Oral plasma exposure in SCID mouse at 5 mg/kg, po measured after 6 hrs
# Assay type: ADME, organism-based
# Conditions: SCID, plasma
row,SMILES,concentration at 6 h
1,CC(=O)N1CCc2c(c(N3CCCc4cc(-c5cnn(C)c5)c(C(F)F)cc43)nn2C2CCN(C3CN(c4ccc5c(c4)C(=O)N(C4CCC(=O)NC4=O)C5=O)C3)CC2)C1 (stereo unspecified),613 ng/mL
2,CC(=O)N1CCc2c(c(N3CCCc4cc(-c5cnn(C)c5)c(C(F)F)cc43)nn2C2CCN(C(=O)CCNc3ccc4c(c3)C(=O)N(C3CCC(=O)NC3=O)C4=O)CC2)C1 (stereo unspecified),2 ng/mL
3,CC(=O)N1CCc2c(c(N3CCCc4cc(-c5cnn(C)c5)c(C(F)F)cc43)nn2C2CCN(C(=O)CCCCNc3cccc4c3C(=O)N(C3CCC(=O)NC3=O)C4=O)CC2)C1 (stereo unspecified),1.6 ng/mL
4,CC(=O)N1CCc2c(c(N3CCCc4cc(-c5cnn(C)c5)c(C(F)F)cc43)nn2C2CCN(CC3CN(c4ccc5c(c4)C(=O)N(C4CCC(=O)NC4=O)C5=O)C3)CC2)C1 (stereo unspecified),7.4 ng/mL
5,CC(=O)N1CCc2c(c(N3CCCc4cc(-c5cnn(C)c5)c(C(F)F)cc43)nn2C2CCN(C3CC4(CCN(c5ccc6c(c5)C(=O)N(C5CCC(=O)NC5=O)C6=O)CC4)C3)CC2)C1 (stereo unspecified),328 ng/mL
